Common to all, as to assay type: functional
For assay [1], the system named is Mycobacterium kansasii. As to the kind of experiment: Antibacterial activity against Mycobacterium kansasii 12478 assessed as inhibition of bacterial growth incubated for 6 to 7 days by resazurin dye based broth microdilution method. The settings on record: time 6-7 day. A general note: Alamar Blue is a resazurin reagent that responds to reducing activity.
The test system of assay [2] is Mycobacterium avium. As to the kind of experiment: Antibacterial activity against Mycobacterium avium 25291 assessed as inhibition of bacterial growth incubated for 6 to 7 days by resazurin dye based broth microdilution method. The settings on record: time 6-7 day.
Assay [3] has as its system Mycobacterium avium. As to the kind of experiment: Antibacterial activity against Mycobacterium avium 700898 assessed as inhibition of bacterial growth incubated for 6 to 7 days by resazurin dye based broth microdilution method. The following applies: time 6-7 day.
In assay [4] the test system is Mycobacteroides abscessus. As to the kind of experiment: Synergistic antibacterial activity against Mycobacterium abscessus 19977 assessed as test compound MIC incubated for 72 hrs in presence of 39 uM ethambutol by checkerboard assay.
The test system of assay [5] is Mycolicibacterium smegmatis. In words: Inhibition of peptidoglycan biosynthesis in Mycobacterium smegmatis 700084 assessed as increase in N-glycolyl modified precursor UDP-MurNGlyc-pentapeptide accumulation at 10 uM incubated for 4 hrs by RP-HPLC method.
The subject of assay [6] is Mycolicibacterium smegmatis. In words: Antibacterial activity against Mycobacterium smegmatis 700084 assessed as inhibition of bacterial growth incubated for 48 hrs by resazurin dye based broth microdilution method.
In assay [7] the test system is Bacillus subtilis. As to the kind of experiment: Antibacterial activity against Bacillus subtilis 23857 assessed as inhibition of bacterial growth incubated for 18 to 20 hrs by broth microdilution method. The following applies: time 18-20 hrs. On the technique in general: In broth dilution the organism is exposed to a series of concentrations in liquid medium.
For assay [8], the system named is Mycobacteroides abscessus. In words: Synergistic antibacterial activity against Mycobacterium abscessus 19977 assessed as fractional inhibitory concentration index incubated for 72 hrs in presence of ethambutol by checkerboard assay.
In assay [9] the test system is Mycolicibacterium smegmatis. As to the kind of experiment: Antibacterial activity of against Mycobacterium smegmatis 700084 assessed as Ac-Kaa-induced neutralization of antibiotic effect by measuring molar excess ratio of smallest concentration of AC-Kaa required to neutralize antibiotic effect to MIC of antibiotic at 16 uM incubated for 48 hrs by resazurin dye based broth microdilution method.

Assay [10] concerns Mycobacteroides abscessus. In words: Antibacterial activity against Mycobacterium abscessus 19977 assessed as elimination of viable bacteria at 2 times MIC measured after 50 hrs by time kill assay relative to control.
The subject of assay [11] is Mycolicibacterium smegmatis. As to the kind of experiment: Synergistic antibacterial activity against Mycobacterium smegmatis 700084 assessed as fractional inhibitory concentration index incubated for 48 hrs in presence of ethambutol by checkerboard assay.
Assay [12] has as its system Bacillus subtilis. In words: Antibacterial activity of against Bacillus subtilis 23857 assessed as Ac-Kaa-induced neutralization of antibiotic effect by measuring molar excess ratio of smallest concentration of AC-Kaa required to neutralize antibiotic effect to MIC of antibiotic at 0.25 uM incubated for 48 hrs by resazurin dye based broth microdilution method.
The test system of assay [13] is Mycobacteroides abscessus. In words: Antibacterial activity against Mycobacterium abscessus 19977 assessed as inhibition of bacterial growth incubated for 72 hrs by resazurin dye based broth microdilution method.
Assay [14] concerns Mycolicibacterium smegmatis. In words: Inhibition of biofilm formation in Mycobacterium smegmatis 700084 assessed as reduction in wrinkled pellicle formation incubated for 5 days. The following applies: time 5 day.
Assay [15] has as its system Mycolicibacterium smegmatis. In words: Antibiofilm activity against Mycobacterium smegmatis 700084 assessed as eradication of preformed bacterial biofilm incubated for 24 hrs by crystal violet staining based assay.
Assay [16] deals with Corynebacterium glutamicum. In words: Antibacterial activity against Corynebacterium glutamicum 13032 assessed as inhibition of bacterial growth incubated for 18 to 20 hrs by broth microdilution method. The settings on record: time 18-20 hrs.
Assay [17] concerns Corynebacterium glutamicum. In words: Antibacterial activity of against Corynebacterium glutamicum 13032 assessed as Ac-Kaa-induced neutralization of antibiotic effect by measuring molar excess ratio of smallest concentration of AC-Kaa required to neutralize antibiotic effect to MIC of antibiotic at 0.25 uM incubated for 48 hrs by resazurin dye based broth microdilution method.

The subject of assay [18] is Mycobacteroides abscessus. As to the kind of experiment: Synergistic antibacterial activity against Mycobacterium abscessus 19977 assessed as test compound MIC incubated for 72 hrs in presence of 78 uM ethambutol by checkerboard assay.

Molecules are shown by their SMILES. Values after ≈ are worked out from the molar mass of the structure shown. Active and inactive are the calls of the source.

This is an account of results in ChEMBL document CHEMBL5346975, “Conjugation of Vancomycin with a Single Arginine Improves Efficacy against Mycobacteria by More Effective Peptidoglycan Targeting” (2023).

For the compound `CN[C@H](CC(C)C)C(=O)N[C@H]1C(=O)N[C@@H](CC(N)=O)C(=O)N[C@H]2C(=O)N[C@H]3C(=O)N[C@H](C(=O)N[C@H](C(=O)O)c4cc(O)cc(O)c4-c4cc3ccc4O)[C@H](O)c3ccc(c(Cl)c3)Oc3cc2cc(c3O[C@@H]2O[C@H](CO)[C@@H](O)[C@H](O)[C@H]2O[C@H]2C[C@](C)(N)[C@H](O)[C@H](C)O2)Oc2ccc(cc2Cl)[C@H]1O` [VANCOMYCIN], the MIC (commonly the smallest concentration in the dilution series that meets the test's criterion for growth inhibition) in assay [1] was 24 µM (≈ 34.8 µg/mL); in [2], above 256 µM; in assay [3], 64 µM (≈ 92.8 µg/mL); in assay [4], 3 µM; in assay [6], 8 µM (≈ 11.6 µg/mL); in assay [7] it was 0.25 µM (≈ 0.362 µg/mL). Besides, the MIC in assay [13] is 64 µM (≈ 92.8 µg/mL); in assay [16], 0.25 µM (≈ 0.362 µg/mL); in [18], 2 µM. Further, the inhibition entry in assay [5] is “Active”. Further, the “fractional inhibitory concentration index (FICI)” value in [8] is reported as 0.17; in assay [11], 0.28. In addition, the Ratio in assay [9] is listed as 3.9; in assay [12], 15.6; in assay [17] it was 62.5. In addition, the Activity in [10] is on record as above 95%. In assay [14], the BBC came out at 0.5 µM. Moreover, the MBEC in assay [15] came to 64 µM.

For the compound `CC[C@@H](CO)NCCN[C@@H](CC)CO` [ETHAMBUTOL], the MBEC in assay [15] is above 256 µg/mL.

As for `CO[C@H]1/C=C/O[C@@]2(C)Oc3c(C)c(O)c4c(O)c(c(/C=N/N5CCN(C)CC5)c(O)c4c3C2=O)NC(=O)/C(C)=C\C=C\[C@H](C)[C@H](O)[C@@H](C)[C@@H](O)[C@@H](C)[C@H](OC(C)=O)[C@@H]1C` [RIFAMPIN], the MBEC in [15] was 156 µM.
